# Test results as given in patent US20040110821A1, “GAL3 receptor antagonists for the treatment of affective disorders” (priority 2002, published 2004).
# What was measured:
# human GAL1 receptor = target: T1, human GAL1 receptor (Homo sapiens, UniProt P47211); test: Radioligand binding at cloned human GAL1 receptor; details: pyrimidines, Tables 1-3, read-out: Ki (nM) GalR1
# T1 construct: expressed in transfected cells
# T1 sequence (P47211 1-349): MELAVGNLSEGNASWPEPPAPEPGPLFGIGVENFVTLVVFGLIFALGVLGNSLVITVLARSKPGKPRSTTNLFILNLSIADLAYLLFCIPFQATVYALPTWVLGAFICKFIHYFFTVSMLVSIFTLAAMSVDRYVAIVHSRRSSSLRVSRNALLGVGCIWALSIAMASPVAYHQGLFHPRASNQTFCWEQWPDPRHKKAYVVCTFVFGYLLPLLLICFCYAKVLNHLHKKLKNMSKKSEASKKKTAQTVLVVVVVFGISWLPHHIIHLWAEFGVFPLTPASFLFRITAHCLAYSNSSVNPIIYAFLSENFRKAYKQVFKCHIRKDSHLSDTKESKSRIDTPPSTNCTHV
# Protocol: (§1) The present invention provides for a method of determining the binding affinity of a GAL3 antagonist, wherein the GAL3 antagonist is dissolved in a “suitable solvent”. A “suitable solvent” means one which permits the measurement of binding affinity of the GAL3 antagonist to the human GAL3 receptor at concentrations less than 1 μM, preferably less than 100 nM. Examples of solvents include, but are not limited to, DMSO, ethanol, N,N-dimethylacetamide, or water. For indolones, the preferred solvent is 3% DMSO (final concentration in the assay). For pyrimidines, the preferred solvent is 1% ethanol/0.09% polypuronic acid F-127 (final concentration in the assay). For any other type of compounds, the preferred solvent is the solvent which permits the measurement of binding affinity of a GAL3 antagonist at the lowest concentration. Once a suitable solvent is ascertained for the binding assay of the human GAL3 receptor, the same solvent is used in assays to determine the binding affinity for instance, at the GAL1 receptor.
# (§2) The binding properties of the pyrimidines of the present invention were evaluated at the cloned human galanin receptors, GAL1, GAL2, and GAL3, using protocols described herein.
# (§3) The binding properties of the indolones of the present invention were evaluated at the cloned human galanin receptors, GAL1, GAL2, and GAL3, using protocols described herein.
# (§4) LM(tk-) cells were stably transfected with the human GAL1 or GAL3 receptor. CHO cells were stably transfected with the human GAL2 receptor.
# (§5) cDNAs for the human and rat GAL1, and human and rat GAL3 receptors were transfected with a G-418 resistant gene into the mouse fibroblast LM(tk-) cell line by a calcium phosphate transfection method (Cullen, 1967). Stably transfected cells were selected with G-418. Human and rat GAL2 receptors were similarly transfected into CHO cells.
# (§6) Membranes were harvested from stably transfected LM(tk-) cells. Adherent cells were washed twice in ice-cold phosphate buffered saline (138 mM NaCl, 8.1 mM Na2HPO4, 2.5 mM KCl, 1.2 mM KH2PO4, 0.9 mM CaCl2, 0.5 mM MgCl2, pH 7.4) and lysed by sonication in ice-cold sonication buffer (20 mM Tris-HCl, 5 mM EDTA, pH 7.7). Large particles and debris were cleared by low speed centrifugation (200×g, 5 min, 4° C.). Membranes were collected from the supernatant fraction by centrifugation (32,000×g, 18 min, 4° C.), washed with ice-cold hypotonic buffer, and collected again by centrifugation (32,000×g, 18 min, 4° C.). The final membrane pellet was resuspended by sonication into a small volume of ice-cold binding buffer (−1 ml for every 5 plates: 10 mM NaCl, 20 mM HEPES, 0.22 mM KH2PO4, 1.26 mM CaCl2, 0.81 mM MgSO4, pH 7.4). Protein concentration was measured by the Bradford method (Bradford, 1976) using Bio-Rad Reagent, with bovine serum albumin as a standard. Membranes were held on ice for up to one hour and used fresh, or flash frozen and stored in liquid nitrogen. Membranes were prepared similarly from CHO cells.
# (§7) Galanin Receptors: Binding assays were performed according to the following published methods: human GAL3 (PCT International Publication No. WO 98/15570), human GAL1 (PCT International Publication No. WO 95/2260) human GAL2 (PCT International Publication No. WO 97/26853).
# (§8) Binding data were analyzed using nonlinear regression and statistical techniques available in the GraphPAD Prism package (San Diego, Calif.). Enzymatic assay data were derived from a standard curve of reference compound data.
# human GAL2 receptor = target: T2, human GAL2 receptor (Homo sapiens, UniProt O43603); test: Radioligand binding at cloned human GAL2 receptor; details: pyrimidines, Tables 1-3, read-out: Ki (nM) GalR2
# T2 construct: expressed in transfected cells
# T2 sequence (O43603 1-387): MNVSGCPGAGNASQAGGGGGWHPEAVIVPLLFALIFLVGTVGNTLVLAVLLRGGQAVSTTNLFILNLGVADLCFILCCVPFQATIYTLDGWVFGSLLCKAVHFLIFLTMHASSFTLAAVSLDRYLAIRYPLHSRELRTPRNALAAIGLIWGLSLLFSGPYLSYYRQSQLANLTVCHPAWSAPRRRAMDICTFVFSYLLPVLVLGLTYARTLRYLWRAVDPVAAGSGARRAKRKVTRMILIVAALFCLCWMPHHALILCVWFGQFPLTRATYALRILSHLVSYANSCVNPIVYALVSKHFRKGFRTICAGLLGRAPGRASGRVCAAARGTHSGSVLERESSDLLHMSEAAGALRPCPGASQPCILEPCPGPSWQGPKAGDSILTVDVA
# Protocol: as §1, §2, §3, §4, §5, §6, §7, §8
# human GAL3 receptor = target: T3, human GAL3 receptor (Homo sapiens, UniProt O60755); test: Radioligand binding at cloned human GAL3 receptor; details: cloned human GAL3 receptor; indolones, Table 4a; read-out: Ki (nM) Gal3
# T3 construct: expressed in transfected cells
# T3 sequence (O60755 1-368): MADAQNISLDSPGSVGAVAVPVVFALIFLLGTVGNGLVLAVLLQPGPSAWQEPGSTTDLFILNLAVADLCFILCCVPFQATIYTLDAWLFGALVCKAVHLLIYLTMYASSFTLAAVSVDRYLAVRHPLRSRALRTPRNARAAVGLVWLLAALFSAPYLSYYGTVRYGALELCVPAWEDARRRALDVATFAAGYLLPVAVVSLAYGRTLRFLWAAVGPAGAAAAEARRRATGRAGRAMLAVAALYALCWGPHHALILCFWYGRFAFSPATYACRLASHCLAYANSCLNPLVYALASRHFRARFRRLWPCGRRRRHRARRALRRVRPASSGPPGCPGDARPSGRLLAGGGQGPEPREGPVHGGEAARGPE
# Protocol: as §1, §2, §3, §4, §5, §6, §7, §8
Compound,Ki (human GAL1 receptor) [nM],Ki (human GAL2 receptor) [nM],Ki (human GAL3 receptor) [nM]
Cc1ccc(Nc2cc(N(C)C)nc(N(C)c3ccc(C)cc3)n2)cc1 [Example 72],> 5000,,
Cc1ccc(Nc2cc(N(C)C)nc(N3CCN(c4ccccc4C)CC3)n2)cc1 [Example 85],> 5000,,
Cc1ccc(Nc2cc(N3CCCCC3)nc(N3CCc4ccccc43)n2)cc1 [Example 39],> 5000,> 5000,
COc1cc2c(cc1OC)CN(c1nc(Nc3ccc(C)cc3)cc(N3CCCCC3)n1)CC2 [Example 42],> 5000,,
CN(C)c1cc(Nc2ccc(Br)cc2)nc(Nc2ccccc2)n1 [Example 59],> 5000,> 5000,
Cc1ccc(Nc2cc(N(C)C)nc(N3CCC(c4ccccc4)CC3)n2)cc1 [Example 81],> 5000,,
Cc1ccc(/N=C2\C(=O)N(c3ccccc3)c3ccccc32)c(Cl)c1 [Example 286],,,38
Cc1ccc(Nc2cc(N3CCCCC3)nc(Nc3ccccc3)n2)cc1 [Example 3],> 5000,> 5000,
CN(C)c1cc(Nc2ccc3ccccc3c2)nc(Nc2ccccc2)n1 [Example 65],> 5000,> 5000,
Cc1ccc(Nc2cc(N3CCCCC3)nc(N3Cc4cccc5cccc(c45)C3)n2)cc1 [Example 43],> 5000,> 5000,
Cc1ccc(Nc2cc(N(C)C)nc(N3CCN(c4cccc(C)c4)CC3)n2)cc1 [Example 86],> 5000,> 5000,
CN(C)c1cc(Nc2ccccc2)nc(Nc2ccccc2)n1 [Example 50],> 5000,> 5000,
Cc1ccc(Nc2cc(N(C)C)nc(N3CCN(S(=O)(=O)c4ccc(C)cc4)CC3)n2)cc1 [Example 84],> 5000,> 5000,
CN(CCc1c[nH]c2ccccc12)c1nc(Nc2cccc(F)c2)cc(N2CCCCC2)n1 [Example 14],> 5000,,
COCCN(CCc1c[nH]c2ccccc12)c1nc(Nc2ccc(C)cc2)cc(N2CCCCC2)n1 [Example 19],> 5000,,
Cc1ccc(Nc2cc(N3CCCCC3)nc(NCCc3c[nH]c4ccc(C)cc34)n2)cc1 [Example 8],> 5000,,
Cc1cccc(Nc2cc(N(C)C)nc(Nc3ccccc3)n2)c1 [Example 52],> 5000,> 5000,
Cc1ccc(Nc2nc(Nc3cccc(C)c3)cc(N(C)C)n2)cc1 [Example 53],> 5000,> 5000,
Cc1ccc(Nc2cc(N3CCCCC3)nc(N3CCN(c4ncccc4C)CC3)n2)cc1 [Example 31],> 5000,,
Cc1ccc(Nc2cc(N3CCCCC3)nc(N3CCC(c4ccccc4)CC3)n2)cc1 [Example 24],> 5000,,
Cc1ccc(Nc2cc(N3CCCCC3)nc(N3CCN(c4cc(C(F)(F)F)ccn4)CC3)n2)cc1 [Example 32],> 5000,,
Cc1ccc(Nc2cc(N3CCCCC3)nc(N(C)c3ccccc3)n2)cc1 [Example 6],> 5000,,
Cc1ccc(Nc2cc(N3CCCCC3)nc(N3CCN(c4cccc(C(F)(F)F)n4)CC3)n2)cc1 [Example 33],> 5000,> 5000,

Compound,Ki (human GAL1 receptor) [nM],Ki (human GAL2 receptor) [nM],Ki (human GAL3 receptor) [nM]
Cc1ccc(Nc2cc(N3CCCCC3)nc(N(C)CCc3c[nH]c4ccccc34)n2)cc1 [Example 11],> 5000,,
Cc1ccc(Nc2cc(N(C)C)nc(Nc3ccc(C)cc3)n2)cc1 [Example 56],> 5000,> 5000,
Cc1ccc(Nc2cc(N3CCCCC3)nc(N3CCC(O)(c4ccccc4)CC3)n2)cc1 [Example 44],> 5000,,
Cc1ccc(Nc2cc(N(C)C)nc(N3CCC(O)(c4ccccc4)CC3)n2)cc1 [Example 80],> 5000,,
Cc1ccc(Nc2cc(N3CCCCC3)nc(N(C)CCc3c[nH]c4ccccc34)n2)cc1Cl [Example 16],> 5000,> 5000,
Cc1ccc(Nc2cc(N(C)C)nc(N(C)C3CCCCC3)n2)cc1 [Example 73],> 5000,,
Cc1ccc(Nc2cc(N(C)C)nc(N3CCN(c4ccc(C)cc4)CC3)n2)cc1 [Example 87],> 5000,,
Cc1ccc(Nc2cc(N3CCCCC3)nc(N3CCN(Cc4ccccc4)CC3)n2)cc1 [Example 23],> 5000,> 5000,
CN(C)c1cc(Nc2ccc(C(C)(C)C)cc2)nc(Nc2ccccc2)n1 [Example 63],> 5000,> 5000,
Cc1ccc(Nc2cc(N3CCCCC3)nc(NCCc3c[nH]c4ccccc34)n2)cc1 [Example 10],> 5000,,
COCCN(CCOC)c1nc(Nc2ccc(C)cc2)cc(N2CCCCC2)n1 [Example 45],> 5000,> 5000,
Cc1ccc(Nc2cc(N3CCCCC3)nc(Nc3ccc(C)cc3)n2)cc1 [Example 4],> 5000,> 5000,
CN(C)c1cc(Nc2ccc(Oc3ccccc3)cc2)nc(Nc2ccccc2)n1 [Example 64],> 5000,> 5000,
Cc1ccc(Nc2cc(N3CCCCC3)nc(N3CCN(c4ncccn4)CC3)n2)cc1 [Example 37],> 5000,,
COc1cccc(Nc2cc(N3CCCCC3)nc(N(C)CCc3c[nH]c4ccccc34)n2)c1 [Example 17],> 5000,,
Cc1ccc(Nc2cc(N(C)C)nc(Nc3ccccc3)n2)cc1 [Example 54],> 5000,> 5000,
CN(C)c1cc(NC2CCCCC2)nc(Nc2ccccc2)n1 [Example 66],> 5000,> 5000,
Cc1ccc(Nc2cc(N3CCCCC3)nc(N3CCN(c4ccccn4)CC3)n2)cc1 [Example 30],> 5000,,
Cc1ccc(Nc2cc(N3CCCCC3)nc(N3CCCc4ccccc43)n2)cc1 [Example 40],> 5000,,
Cc1ccc(Nc2cc(N(C)C)nc(Nc3ccc(Cl)c(Cl)c3)n2)cc1 [Example 55],> 5000,> 5000,
COc1ccc2[nH]cc(CCNc3nc(Nc4ccc(C)cc4)cc(N4CCCCC4)n3)c2c1 [Example 9],> 5000,,
CN(C)c1cc(Nc2cccc(F)c2)nc(Nc2ccccc2)n1 [Example 57],> 5000,> 5000,
CCc1ccccc1N1CCN(c2nc(Nc3ccc(C)cc3)cc(N3CCCCC3)n2)CC1 [Example 26],> 5000,,
